Experimental data as given in patent US20210251208A1, “COMPOSITION AND METHOD FOR ATTRACTING BED BUGS” (NATTARO LABS AB, priority 2016, published 2021).
Values joined by “and” are separate entries in the source; they are usually repeats but may differ in a detail not shown here. Equal entries are not always repeated. “Also recorded” adds a separate entry of the source.

Experiments:
[1] = tested on: bed bugs; experiment: Arena test of individual compounds vs. blend (40 cm arena, synergy); format: in vivo; conditions: individual compound 100 mg/l in gelatine, five females and five males, N = 10
Procedure: The following six tests were carried out: arena test of each of the five compounds a, b, e, f, and g individually and a test of the whole blend abefg. The procedure was the following.
Gelatine solutions (lures) each containing a total of 100 mg/l of either (a) E-2-hexenal, (b) E-2-octenal, (e) E-2-hexenoic acid, (f) 2-octenoic acid and (g) 2-hexanone or the combination of the five compounds abefg were prepared.
Five female and five male bedbugs were released into the centre of the arena in a dark room. The arena was lit with infrared light and after an initial 5 min acclimatization bed bugs were released in the middle of the arena and left for 30 minutes during which time their activity was video-recorded using an Infrared light camera coupled to Noldus Ethovision 15 program. At the end of the 30 minutes period, the bed bugs were manually collected and their positions recorded.
After each replicate, the arena was cleaned with 70% ethanol and the position of the compound and controls were shifted. Ten replicates were made with each of the individual compound lures and the whole blend totalling 60 tests comprising 600 bed bugs, 300 females and 300 males. […] This value was subtracted from the number of bed bugs attracted to each lure correcting for the random part in the attraction in each replicate. The corrected values were used to calculate the average number of bed bugs attracted to each individual lure chemical and to the lure blend.

[2] = Dynamic headspace collection of volatiles from bait, GC-MS; format: physicochemical; conditions: abefg 1:1:1:1:1 in gelatine 100 mg/l of each compound
Procedure: After collection of the enfleurage samples head-space collections were made from each container using a special lid into which an adsorbent plug was inserted. The head-space of all containers in a replicate was collected simultaneously under dark conditions (except the first samples of replicate one) using battery operated membrane pumps. The air-flow through each container was adjusted to 35-40 ml/min. The head-space samples were collected for 2 hours for replicate one to three after the first week, but was extended to 4-6 hours for replicate 4 & 5 and for all replicates and collections after the second week. This was done to secure more material as the first samples were very weak.
The samples were analyzed on a gas chromatograph (GC, Hewlett-Packard 6890 Series) equipped with a polar capillary column (Innowax; 30 m long, 0.25 mm i.d. and film thickness 0.25 μm Agilent Technologies USA) coupled to a mass spectrometer (Hewlett-Packard 5973 Mass Selective Detector). The injector temperature was 225° C. and the injection splitless. The GC temperature was programmed for 2 min at 40° C. followed by a gradual increase of 8°/min to 225° C., where the temperature was held steady for five min. Compounds were identified against the spectra and retention times of authentic reference compounds or in a few cases against the spectral libraries of ADAM and NIST2011.
One of the baits used in the Arena test was placed in a container and the dynamic headspace was collected as described in example 1 and analysed using Gas chromatography-Mass spectroscopy (GC-MS).

[3] = tested on: bed bugs; experiment: Arena test of baits (52 cm arena, ten bed bugs, 30 minutes); format: in vivo; conditions: baits formulated using 3 wt % methylcellulose
Procedure: In these tests bed bugs were placed in an arena and allowed to freely move around while the movement patterns were recorded, including in particular the time that bed bugs spent in proximity to each of the three different stations, each station comprising a bait (test compound) or control.
The arena comprised a round (52 cm diameter) white painted metal tray with a 3.8 cm high rim. Evenly spaced half way between centrum and periphery three holes (3.4 cm diam) were bored. To prevent bed bug escape the rim was painted with Insect-a-Slip (#2871C Fluon, BioQuip Products, Inc. 2321 E, Chadwick St., Rancho Dominguez, Calif. 90220) resulting in a non-porous slippery, surface at the rim of the tray.
Three plastic containers (34 mm diam×7 cm high), each with a net covered hole (18 mm diam) at the bottom to allow airflow, were attached below the holes at the underside of the arena using clay dough. At the start of an experiment the compounds/baits and controls were placed one in each container below the arena. […]
Bed bugs, ten at a time, were introduced in separate vials into the middle of the arena and simultaneously video recording was started. […] At the end of the 30 minutes experimental period, the number of bed bugs in each container, and beneath or at the rim of the convex glass sheet above each container was scored. […] The final position was not recorded during early experiments. […]

[4] = Stability / shelf-life of baits; format: physicochemical; conditions: ascorbic acid included in gelatine baits
From the text: The inclusion of ascorbic acid was thus subsequently discontinued.

| Molecule | No. of bed bugs at test compound position at end of experiment (average, corrected for random attraction to controls) [1] | AMOUNT in headspace of bait ([2]; Sample no. 15:209-213) [nano gram/hour] | AMOUNT in headspace of bait ([2]; Sample no. 15:215-219) [nano gram/hour] | AMOUNT in headspace of bait ([2]; Sample no. 15:245.1-5) [nano gram/hour] | AMOUNT in headspace of bait ([2]; Sample no. 16:02.1-5) [nano gram/hour] | AMOUNT in headspace of bait ([2]; Sample no. 16.37-40) [nano gram/hour] | attractive effect in (initial) Arena tests [3] | effect of anti-oxidant on baits / shelf-life of the composition [4] |
| --- | --- | --- | --- | --- | --- | --- | --- | --- |
| CCCCC(C)=O [(g) 2-hexanone, 2-Hexanone] | 1.35 | 429.1 | 310.3 | 168.2 | 76.1 | 402.0 |  |  |
| (E)-octenoic acid |  | 0 | 0.8 | 0 | 0 | 0.01 |  |  |
| CCCCC(=O)/C=C/C=O [4-oxo-(E)-2-octenal, 4-Oxo-(E)-2-octenal] |  |  |  |  |  |  | no attractive effect, rather as having a repulsive effect |  |
| CCC/C=C/C=O [(a) E-2-hexenal, (E)-2-hexenal] | slightly deterrent effect and −0.50 |  |  |  |  |  |  |  |
| CCCCC/C=C/C=O [(b) E-2-octenal, (E)-2-octenal] | 1.35 |  |  |  |  |  |  |  |
| CCC/C=C/C(=O)O [(e) E-2-hexenoic acid, (E)-2-hexenoic acid] | 0.55 | 0.2 | 3.1 | 0 | 1.4 | 0.08 |  |  |
| (Z)- & (E)-2-Hexenal |  | 565.6 | 234.6 | 136.3 | 102.2 | 258.3 |  |  |
| CCCCCC=CC(=O)O [(f) E-2-octenic acid, 2-Octenoic acid] | 0.35 |  |  |  |  |  |  |  |
| O=C1O[C@H]([C@@H](O)CO)C(O)=C1O [ascorbic acid] |  |  |  |  |  |  |  | degraded the baits and resulted in lower efficiency of the baits; also recorded: decreased the shelf-life of the composition |
| CCC(=O)/C=C/C=O [4-Oxo-(E)-2-hexenal] |  |  |  |  |  |  | no attractive effect, rather as having a repulsive effect |  |
| (Z)- & (E)-2-octenal |  | 914.5 | 477.6 | 438.5 | 405.2 | 349.9 |  |  |
